Data as given in patent US20240245783A1, “METALLO-BETA-LACTAMASE INHIBITOR” (priority 2021, published 2024).

Experiments:
[1] = system: multidrug-resistant Pseudomonas aeruginosa; assay: Growth suppression of multidrug-resistant Pseudomonas aeruginosa clinical isolates (Test Example 7); format: cell-based; conditions: MEPM 2 μg/ml alone, compound 8 20 μM (15.5 μg/ml) alone, Combination = both, 3 wells
Procedure: The effect of NODA-GA-conjugated doripenem (compound 8) on the susceptibility of a Pseudomonas aeruginosa clinical isolate to a carbapenem antibacterial agent was evaluated by the following method. The Pseudomonas aeruginosa clinical isolate was cultured overnight with shaking in LB medium. The bacterial solution was diluted to 1/1000 with LB medium, used as a test bacterial solution, and then seeded in a 96-well plate. Meropenem (Wako Pure Chemical Industries, Ltd.) was added to this bacterial solution in such a manner that the concentration was 2 μg/ml. The effect of NODA-GA-doripenem alone was also examined. The bacteria were cultured in an incubator at 37° C. for one day, and the growth at that time was measured by turbidity (655 nm).
MEPM in Table 1 is meropenem (2 μg/ml) administered alone; NODA-GA-doripenem is compound 8 (20 μM; 15.5 μg/ml) administered alone; Combination means a combined use of meropenem (2 μg/ml) and compound 8 (20 μM; 15.5 μg/ml).

[2] = system: Multidrug-resistant Pseudomonas aeruginosa strain MR4; assay: Growth inhibition of Pseudomonas aeruginosa strain MR4 (Test Example 8); format: cell-based; conditions: after 24 hours, compared with doripenem
Procedure: Multidrug-resistant Pseudomonas aeruginosa strain MR4 was cultured with doripenem or compound 8, and the bacterial load was assessed by turbidity after 24 hours. FIG. 18 depicts the results.

Structure (SMILES): C[C@@H](O)[C@H]1C(=O)N2C(C(=O)O)=C(S[C@@H]3CN[C@H](CNS(=O)(=O)NC(=O)CCC(C(=O)O)N4CCN(CC(=O)O)CCN(CC(=O)O)CC4)C3)[C@H](C)[C@H]12 (stereo partly drawn) [compound 8, NODA-GA-conjugated doripenem]
- suppression of bacterial growth ([1]; strain 808#1): X (x indicates that the number of wells in which suppression of bacterial growth was confirmed was 1 or less)
- suppression of bacterial growth ([1]; strain 808#2): X (x indicates that the number of wells in which suppression of bacterial growth was confirmed was 1 or less)
- suppression of bacterial growth ([1]; strain MR1): ◯ (◯ indicates that bacterial growth was suppressed in all 3 wells)
- suppression of bacterial growth ([1]; strain MR2): ◯ (◯ indicates that bacterial growth was suppressed in all 3 wells)
- suppression of bacterial growth ([1]; strain MR3): Δ (Δ indicates that bacterial growth was suppressed in 2 wells out of 3 wells)
- suppression of bacterial growth ([1]; strain MR4): Δ (Δ indicates that bacterial growth was suppressed in 2 wells out of 3 wells)
- suppression of bacterial growth ([1]; strain MR5): ◯ (◯ indicates that bacterial growth was suppressed in all 3 wells)
- suppression of bacterial growth ([1]; strain MR6): Δ (Δ indicates that bacterial growth was suppressed in 2 wells out of 3 wells)
- suppression of bacterial growth ([1]; strain MR7): ◯ (◯ indicates that bacterial growth was suppressed in all 3 wells)
- suppression of bacterial growth ([1]; strain MR8): X (x indicates that the number of wells in which suppression of bacterial growth was confirmed was 1 or less)
- suppression of bacterial growth ([1]; strain MR9): ◯ (◯ indicates that bacterial growth was suppressed in all 3 wells)
- suppression of bacterial growth ([1]; strain MR10): Δ (Δ indicates that bacterial growth was suppressed in 2 wells out of 3 wells)
- suppression of bacterial growth ([1]; strain MR11): X (x indicates that the number of wells in which suppression of bacterial growth was confirmed was 1 or less)
- suppression of bacterial growth ([1]; strain MR12): X (x indicates that the number of wells in which suppression of bacterial growth was confirmed was 1 or less)
- suppression of bacterial growth ([1]; strain MR13): X (x indicates that the number of wells in which suppression of bacterial growth was confirmed was 1 or less)
- suppression of bacterial growth ([1]; strain MR14): Δ (Δ indicates that bacterial growth was suppressed in 2 wells out of 3 wells)
- suppression of bacterial growth ([1]; strain MR15): ◯ (◯ indicates that bacterial growth was suppressed in all 3 wells)
- suppression of bacterial growth ([1]; strain MR16): X (x indicates that the number of wells in which suppression of bacterial growth was confirmed was 1 or less)
- suppression of bacterial growth ([1]; strain NM1): Δ (Δ indicates that bacterial growth was suppressed in 2 wells out of 3 wells)
- suppression of bacterial growth ([1]; strain NM2): Δ (Δ indicates that bacterial growth was suppressed in 2 wells out of 3 wells)
- suppression of bacterial growth ([1]; strain NM3): ◯ (◯ indicates that bacterial growth was suppressed in all 3 wells)
- suppression of bacterial growth ([1]; strain NM4): ◯ (◯ indicates that bacterial growth was suppressed in all 3 wells)
- suppression of bacterial growth ([1]; strain NM5): X (x indicates that the number of wells in which suppression of bacterial growth was confirmed was 1 or less)
- anti-Pseudomonas aeruginosa effect (bacterial load by turbidity) [2]: significantly improved compared to that of doripenem
